Measurements reported in patent US20090291857A1, “METHODS TO IDENTIFY INHIBITORS OF THE UNFOLDED PROTEIN RESPONSE” (THE BOARD OF TRUSTEES OF THE LELAND STANFORD JUNIOR …, priority 2006, published 2009).

What was measured:
[1] = Analysis of blood chemistry and cell composition; assay type: in vivo, mouse
Description: Complete blood counts (CBC's) and clinical chemistry panels were performed on blood obtained by cardiac puncture after euthanasia with CO2. Gross necropsies were performed, all major viscera were harvested, fixed in 10% buffered neutral formalin, routinely processed for paraffin embedding, and stained with hematoxylin and eosin (H&E). Sections were analyzed by a board-certified veterinary pathologist (DMB).
The increased sensitivity of irestatin-treated cells to hypoxic stress in vitro indicate that selective inhibition of IRE1α signaling could impact tumor growth. […] In contrast, XBP-1s was not detected in normal pancreas specimens (0/20), and infrequently observed in chronic pancreatitis (1/29) (FIG. 15). To explore the effects to irestatin 9389 in vivo, we first established animal dosing parameters using real-time bioluminescence imaging of SCID mice that had been implanted subcutaneously (s.c.) with tumor cells stably expressing the XBP-luciferase reporter. […] The XBP-luciferase signal returned to basal levels by 24 hours after treatment. […] (FIG. 16).

CHOP/GADD153 = CHOP/GADD153 expression in hypoxic HT1080 cells (Western blot); assay type: cell-based, human; conditions: 2.5 μM, hypoxia 6-12 hours
Description: A. Effect of irestatin 9389 on PERK and ATF6 pathways. HT1080 cells were treated with vehicle alone (lanes 1-4) or 2.5 μM irestatin 9389 (lanes 5-8) and cultured under aerobic conditions for 18 hours (N) or shifted to hypoxia for the indicated times. Protein lysates were analyzed by Western blot analysis using antisera specific for ATF6 (top), CHOP/GADD153 (middle) or actin (bottom). Arrow indicates the cleaved, transcriptionally active form of ATF6. B. Cleavage of caspase-3 in irestatin-treated cells under hypoxia. HT1080 cells were cultured in normoxia (N) or under hypoxia for 36 hours (H 36) in absence or presence of irestatin 9389 (2.5 μM). Arrows indicate proteolytically cleaved caspase-3. C. Colony formation assay. HT1080 cells were treated as in B under normoxia (N) or hypoxia for 48 hours (H 48). Cells were harvested, counted, and allowed to grow under normal culture conditions for 11-12 days. Colonies were visualized with crystal violet staining. D. Quantification of clonogenic survival assay. Values represent the mean+/−SEM from at least 4 independent experiments. E. TUNEL staining of cells treated as in C. F. Quantification of TUNEL-positive cells. Values represent the mean+/−SEM from at least 3 experiments. […] Cells were harvested at the indicated times and counted by hemocytometer. Values represent the mean calculated from triplicate experiments +/−SEM. […]

Cc1csc(NC(=O)CSc2nc3c(c(C(F)(F)F)c2C#N)CCC3)n1 [Compound 9389]
fasting blood glucose levels versus vehicle ([1]; 50 mg/kg): no significant difference | HCT ([1]; mean, irestatin-treated mice, complete blood count): 47% | Total Bilirubin ([1]; mean, irestatin-treated mice, terminal cardiac blood): 0.3 mg/dL | expression of CHOP/GADD153 (CHOP/GADD153): increased
